In PMC9202104 (BMC Biology, 2022):

Key:
[1] = tested on: ZIKV human strain PAN2016; assay: ZIKV challenge in adult Ifnar1−/− mice, tissue viral titers and immunofluorescence; type: in vivo; details: 5 dpi
Experimental: Briefly, 7–8-week-old male mice were used, and two separate experiments were performed. […] These mice were i.p. infected with ZIKV (human strain R103451, 200 PFU/mouse) and observed daily for weight changes and survival until 21 dpi. […] Five days later, these mice were sacrificed, and their tissues, including the heart, testis, eye, kidney, and brain, were collected for detection of viral titers by plaque assay, or apoptosis by immunofluorescence staining. Mice losing 20% of initial weight with severe symptoms, including hind limb weakness and paralysis, or 25% of initial weight, were humanely euthanized with an overdose isoflurane in a Bell Jar, followed by cervical dislocation.
Plaque assay was used to detect viral titers in ZIKV-infected tissues. Briefly, tissues were homogenized with cold culture medium (DMEM + 2% FBS) and then centrifuged (2000 g at 4°C for 10 min). Supernatants were serially diluted to infect Vero E6 cells in 24-well plates. ZIKV titers in tissues were measured from ~40 mg of samples; thus, the detection limit was about 25 PFU/g of tissues.
Immunofluorescence staining was carried out to detect ZIKV and caspase-3 signals in ZIKV-infected mouse tissues. Briefly, tissues were fixed in 4% formaldehyde, embedded in paraffin, and sectioned. The tissue sections were deparaffinized, fixed, and permed using the FIX and PERM Cell Permeabilization Kit (Thermo Fisher Scientific, Waltham, MA, USA). After blocking with 5% BSA, the tissue slides were incubated at 37°C 2 h with ZIKV EDIII-specific human mAb (ZV-67, 1:100, Absolute Antibody, Boston, MA, USA), or rabbit anti-active caspase-3 antibody (1:100, Abcam). The slides were washed with PBS and incubated for 30 min with anti-human FITC antibody (1:100, for ZIKV), or anti-rabbit Alexa Fluor 647 antibody (1:100, for caspase-3). The slides were then counterstained for nuclei, using DAPI (300 nM, Thermo Fisher Scientific, Waltham, MA, USA) for 5 min, and mounted in VectaMount Permanent Mounting Medium (Vector Laboratories, CA, USA). The slides were analyzed using a confocal microscope (Zeiss LSM 880) and ZEN software, and fluorescent signals were quantified by ImageJ software.

[2] = target: T1, binding of ZIKV EDIII to EDIII-specific neutralizing mAbs (Zika virus, UniProt A0A024B7W1); assay: ELISA competition assay, EDIII-mAb binding; details: for IC50: mAb 0.5 μg/mL
T1 construct: EDIII (residues 298-409 in E protein containing a C-terminal human Fc tag); human Fc (C)
Experimental: ELISA was also used to determine the ability of ST087010 to inhibit the binding between ZIKV EDIII and EDIII-specific human mAbs (SMZAb5, ZKA64-LALA, ZV-67, or Z004) or EDI/II-specific human mAb (ZKA78) control. […] The plates were then sequentially incubated with HRP-conjugated anti-human IgG-Fab antibody and TMB substrate, followed by detection of A450 values. Percent inhibition (% inhibition) of compounds was calculated using the formula ((1-(EDIII-mAb-compound)/(EDIII-mAb))×100), and IC50 was obtained using the CalcuSyn computer program.

ZIKV NS2B-NS3 protease = target: T2, ZIKV NS2B-NS3 protease (Zika virus, UniProt Q32ZE1); assay: Fluorescence-based NS2B-NS3 protease inhibition assay; type: biochemical
T2 construct: fused with the genes encoding NS3 protein (residues 1-185) through a linker (Gly4-Thr-Gly4); His6 (C); made in house; host or cells: E. coli
Experimental: Substrate (benzoyl-norleucinelysine-lysine-arginine 7-amino-4-methylcoumarine (Bz-Nle-Lys-Lys-Arg-AMC, 4 μM)) (Bachem, Torrance, CA, USA) was added and incubated for 10 min. Fluorescence intensity was then measured at 460 nm (with excitation at 355 nm) using a microplate reader (FLUOstar Omega, BMG Labtech, USA). A total of 10 mM Tris-HCl, 20% glycerol, 1 mM CHAPS, and 5% DMSO (pH 8.5) were used as reaction and dilution buffers. Percent inhibition (% inhibition) of protease activity was measured in the presence or absence of serially diluted compounds based on the formula ((1-(NS2B-NS3-substrate-compound)/(NS2B-NS3-substrate))×100).

[3] = tested on: ZIKV human strain IbH 30656; assay: Plaque assay, inhibition of ZIKV infection (strain IbH 30656); type: cell-based; details: Zika virus, Vero C1008; plaque assay, Vero E6 cells, human strain; read-out: IC50 IbH 30656
Experimental: After removal of the unbound compounds by centrifugation (after addition of 3% PEG-6000), ZIKV was incubated with Vero E6 cells in 24-well plates at 37°C for 1 h. The cells were then washed with PBS, overlaid with DMEM containing 1% carboxymethyl cellulose and 2% FBS, and cultured at 37°C for 4–5 days, followed by being stained with 0.5% crystal violet. […] Plaques in each well were calculated, and IC50 of compounds for each compound was calculated using the CalcuSyn computer program.

DENV-2 human strain V594 = assay: DENV-2 challenge in Ifnar1−/− mice, flow cytometry titers; type: in vivo; details: 20 mg/kg i.p., 3 dpi
Experimental: Three days after infection, sera and tissues, including the brain, kidney, and heart, were collected and assessed for DENV infection using a flow cytometry assay, as described below. Tissues were freshly homogenized with cold culture medium (EMEM + 2% FBS) and centrifuged at 4°C and 2000 g for 10 min. Serially diluted tissue supernatants and sera were added to C6/36 cells, as described below. DENV titers in tissues or sera were assessed from ~20 mg of tissue samples, or 25 μl of sera, and used for subsequent flow cytometry analysis.
Flow cytometry assay was carried out to analyze DENV-2 titers in the supernatants of homogenized tissues and sera from DENV-2-infected mice collected above. Briefly, homogenized tissue supernatants or sera were added to C6/36 cells (5×10^5 cells/well) pre-seeded in 24-well plates which the culture medium was removed, and the cells were incubated for 1 h (28°C, 5% CO2). After incubation, the cells were washed with PBS, incubated with EMEM containing 2% FBS, and then cultured for 3 days as described above. After further removal of medium, the cells were digested, washed with PBS, and resuspended in FIX/PERM solution (Tonbo Biosciences, San Diego, CA, USA), followed by incubation at 4°C for 1 h in the dark. The cells were then sequentially incubated with mouse anti-flavivirus mAb 4G2 (2 μg/ml) at 37°C for 1 h and FITC-labeled anti-mouse IgG (0.5 mg/ml, BioLegend, San Diego, CA, USA) at 37°C for 30 min, followed by analysis using a FACScan flow cytometer and Summit software. Viral titers (infectious units/ml or infectious units/g) were calculated using the formula ((% of infected cells)×(total number of cells)×(dilution factor)/(amount of inoculum added to cells)).

[4] = C6/36 cells, flow cytometry, representative image

T1 sequence (A0A024B7W1 588-699): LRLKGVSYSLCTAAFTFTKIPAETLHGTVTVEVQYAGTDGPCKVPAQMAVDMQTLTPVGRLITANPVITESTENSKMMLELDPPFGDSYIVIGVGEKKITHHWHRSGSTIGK
T2 sequence (Q32ZE1 1499-1683, added parts left off, change not shown): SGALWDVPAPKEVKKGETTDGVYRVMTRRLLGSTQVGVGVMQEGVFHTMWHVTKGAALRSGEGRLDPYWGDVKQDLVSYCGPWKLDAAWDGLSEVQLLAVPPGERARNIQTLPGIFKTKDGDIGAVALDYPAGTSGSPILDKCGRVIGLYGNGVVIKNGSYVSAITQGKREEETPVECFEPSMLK

`Cc1cc2c(C(C)C)c(O)c(O)c(/C=N/n3c(=O)[nH][nH]c3=O)c2c(O)c1-c1c(C)cc2c(C(C)C)c(O)c(O)c(/C=N/n3c(=O)[nH][nH]c3=O)c2c1O` [ST087010] was tested, and the “Viral titers in the heart, testis, eye, kidney, and brain” value ([1]; 20 mg/kg i.p., ZIKV PAN2016 200 PFU, compared to gossypol or DMSO-treated mice) was “significantly reduced”, the “ZIKV+ signals in eye and testis tissues” value ([1]; immunofluorescence) was “undetectable” and the “Caspase-3 staining in eye and testis tissues” value ([1]; immunofluorescence, compared to DMSO) was “undetectable, or diminished”. The “Inhibition with EDI/II-specific mAb control ZKA78” value ([2]; ELISA competition, ZKA78 did not bind to EDIII) was “no inhibition”, the IC50 ([2]; IC50 blocking EDIII binding to mAb SMZAb5, ELISA competition) was 5.72 µM and the IC50 ([2]; IC50 blocking EDIII binding to mAb Z004, ELISA competition) was 44.5 µM. For the same compound, the IC50 ([2]; IC50 blocking EDIII binding to mAb ZKA64-LALA, ELISA competition) was 4.17 µM, the IC50 ([2]; IC50 blocking EDIII binding to mAb ZV-67, ELISA competition) was 6.7 µM and the IC50 (ZIKV NS2B-NS3 protease) was 4.84 µM. The IC50 [3] was 2900 nM, the “Numbers of infected cells (viral titers) in the brain, kidney, heart, and sera” value (DENV-2 human strain V594; DENV-2 V594 2×10^6 PFU, compared to gossypol and DMSO) was “significantly reduced” and the “DENV-2 in brain, percentage of infected cells” value (DENV-2 human strain V594; [4]) was 1.1%. For the same compound, the “DENV-2 in heart, percentage of infected cells” value (DENV-2 human strain V594; [4]) was 1.0%, the “DENV-2 in kidney, percentage of infected cells” value (DENV-2 human strain V594; [4]) was 3.1% and the “DENV-2 in sera, percentage of infected cells” value (DENV-2 human strain V594; [4]) was 1.3%.
